Measurements as given in patent US10695275B2, “Anti-aging composition” (NEOPHARM CO., LTD., priority 2016, dated 2020).

Columns and labels:
Format in all cases: cell-based
[1] = tested on: human-derived fibroblasts; experiment: toxicity / cell proliferation in human-derived fibroblasts; details: concentration of 20 uM
[2] = tested on: human fibroblasts; experiment: type-1 collagen synthesis in human fibroblasts (PICP EIA kit); details: 24 hours
Method: N-(2-hydroxyethyl)octanamide was added to a culture medium of human fibroblasts (DMEM medium, 10% fetal bovine serum, 1% antibiotics) to confirm the effect of accelerating type-1 collagen synthesis in a cell level. The measurement of the synthesized collagen was qualified using a procollagen type I C-peptide enzyme immunoassay kit (PICP EIA kit).
The human fibroblast culture medium was used to aliquot the human-derived fibroblasts (human fibroblasts) into 6 wells at 2×10^5 cell/well. After cell adhesion was confirmed, the culture medium was treated with 2 ml of N-(2-hydroxyethyl)octanamide as an effective component (anti-aging composition) per each well, at a concentration of 20 uM. After the culture medium was cultured in an incubator under a condition of 37° C. and 5% CO2 for 24 hours, type-1 collagen which is related to a wrinkle forming factor was measured in a cell extract. Here, the concentration of the anti-aging composition is within a range being not toxic and not deriving cell proliferation, when treating human-derived fibroblasts. […]
The effect of accelerating type-1 collagen synthesis was confirmed in the same manner as in Example 1, except that the effective component was not used (a negative control). In addition, type-1 collagen synthesis ability relative to the negative control was calculated as a ratio, and represented by a rate of increase. […]

[3] = tested on: Artificial skin (EpiDermFT); experiment: collagen fiber staining (Masson's Trichrome) in artificial skin; details: 0.1%, 100 μl applied on the surface, 24 hours
Source text: When photo-aging of the skin proceeds by ultraviolet rays, a collagen fiber network in an epidermis-dermis junction is damaged. Thus, the amount and form of collagen fiber is used as an indicator of skin photo-aging. The skin tissue of a hairless mouse which was irradiated with ultraviolet rays after N-(2-hydroxyethyl)octanamide was applied, was stained with Masson's Trichrome, observed using an optical microscope (IX71, Olympus, JPN), and then photographed using a digital camera (DP71, Olympus, JPN).
Artificial skin (EpiDermFT™ from MatTek, Ashland, USA) was purchased, and stabilized in an exclusive medium (EFT-400) for 18 hours. On the surface of the artificial skin, 100 μl of N-(2-hydroxyethyl)octanamide as an effective component (anti-aging composition) at a concentration of 0.1% was applied. After 24 hours, the artificial skin tissue was immobilized with 10% formaldehyde, and embedded with paraffin, and a tissue sliced at 5 μm was stained with Masson's Trichrome (M&T), thereby observing a staining degree of collagen fiber. The results were illustrated in the following FIG. 2.

Compound: CCCCCCCC(=O)NCCO [Example 1, N-(2-hydroxyethyl)octanamide]
- toxicity to human-derived fibroblasts [1]: not toxic
- Rate of increase (%) of type-1 collagen synthesis relative to negative control ([2]; 20 uM, ratio to Comparative Example 1 (non-treated)): 750%
- type-1 collagen concentration (20 uM) ([2]; human fibroblasts treated at 20 uM, measured in cell extract): 0.015
- staining degree of collagen fiber (aniline blue) in the dermal layer under the epidermis [3]: strongly stained
